Values after ≈ are worked out from the molar mass of the structure shown. “Also recorded” adds a separate entry of the source.
What was measured:
[1] = tested on: G. duodenalis trophozoites; test: Anti-Giardia activity assay (MTT viability); assay type: cell-based; details: pure compounds
Protocol: Anti-Giardia (AG) activity assays were conducted on G. duodenalis trophozoites from the ATCC® 30957 strain (assemblage A), using flat-bottom microwell plates in quadruplicate. […] Incubation was carried out for 24 h at 37 °C. EOs and pure compounds were solved in DMSO (Sigma, Madrid, Spain) (<1% final concentration). […] Trophozoites/promastigotes viability was assessed using the modified MTT colorimetric assay, as described previously in the literature, with results further validated by microscopic examination. The plate was analyzed in a spectrophotometer at a wavelength of 570 nm. The percentage of antiparasitic activity was calculated as growth inhibition, using the following formula: % AT = 100 - [(Ap - Ab) ÷ (Ac - Ab)] × 100, where Ap is the absorbance of the tested product, Ab the absorbance of the blank and Ac the absorbance of the control wells (culture without treatment). […] Metronidazole (Acros Organics, Madrid, Spain) served as a reference compound for anti-Giardia activity and Anti-Trichomonas activity and amphotericin B for anti-Leishmania activity. Data was analyzed using STATGRAPHICS Centurion XIX ([…].com) (Statgraphics Technologies, Inc., The Plains, VA, USA). The mammalian cells and trophozoites viability were tested with each compound in a dose-response experiment to calculate their relative potency (CC50 or IC50 value, respectively).

[2] = Cytotoxicity of pure compounds on Vero cells (MTT); assay type: cell-based; details: African green monkey
Protocol: African green monkey kidney cells (Vero cells) were maintained in Dulbecco’s modified Eagle’s minimal essential medium (DMEM) (Thermo Fisher Scientific, Waltham, MA, USA) supplemented with 10% FBS and 1% Pen-Strep at 37 °C under a humidified atmosphere of 5% CO2/95% air.
Cells seeded in 96-well flat-bottom microplates with 100 μL medium per well (initial densities 10^4 cells per well) were exposed for 48 h to serial dilutions (100, 75, 50, 25, 10 and 1 µg/mL) of the tested compounds in DMSO (<1% final concentration). Cell viability was analyzed by the MTT colorimetric assay method, and the purple-colored formazan precipitate was dissolved with 100 μL of DMSO [23].
Data was analyzed using STATGRAPHICS Centurion XIX (https://www.statgraphics.com) (Statgraphics Technologies, Inc., The Plains, VA, USA). The mammalian cells and trophozoites viability were tested with each compound in a dose–response experiment to calculate their relative potency (CC50 or IC50 value, respectively). IC50 (μg/mL) expresses the dose of EOs, extracts or pure compounds needed to produce 50% mortality of trophozoites, while CC50 (μg/mL) expresses the dose of compounds necessary to produce 50% mortality of Vero cells.

[3] = tested on: G. duodenalis trophozoites; test: Morphological evaluation by light microscopy (Diff-Quik), G. duodenalis; assay type: cell-based, Giardia duodenalis; details: germacrone 100 µg/mL, metronidazole 100 µg/mL; 0.5 and 48 h; control DMSO 1%
Protocol: Each well contained 435 μL of culture medium and 15 μL of the test or control compounds at the above-mentioned concentrations. The chamber included: two wells for growth control (0.5 h, 48 h), two for germacrone (0.5 h, 48 h), and two for metronidazole (0.5 h, 48 h). Incubation was performed at 37 °C. At each time point, the medium was removed, wells were dried, fixed, and stained with Diff-Quik. Morphological changes were analyzed using light microscopy. Experiments were performed as independent biological replicates on different plates, and one Diff-Quik stained smear was obtained per condition and time point per biological replicate. For morphometric analysis, a total of 30 trophozoites per condition and time point were measured across the independent biological replicates and were selected by consecutive sampling during a predefined serpentine (zig-zag) scan across the preparation. Up to two eligible trophozoites per field (intact, well-focused and non-overlapping) were measured in sequential fields until n = 30 was reached, avoiding subjective selection of “representative” cells. Overlapping, partially visible, out-of-focus, edge-of-field, or debris-obscured trophozoites were excluded a priori. Trophozoites were photographed using a researcher's mobile phone mounted to the microscope ocular. Calibration was performed at the same magnification using a stage micrometre and applied in ImageJ v. 1.54d. One Diff-Quik stained smear was obtained per condition/time point per biological replicate Cell length, cell width, cell surface, nuclear length, nuclear width, axoneme (only Giardia), and length of axostyle (only T. gallinae) were measured with ImageJ software, and the data were recorded in an Excel database for statistical analysis. The Shapiro-Wilk test was used to assess the normality of the morphological variables. When data followed a normal distribution, Student's t-test was applied; otherwise, non-parametric tests, such as the Mann-Whitney U test, was used. Values of p < 0.05 were considered significant. For the morphological analysis, the mean, standard deviation, median, and interquartile range were calculated using SPSS version 20 (IBM Corp., Armonk, NY, USA).

T. gallinae trophozoites [4] = test: Morphological evaluation by light microscopy (Diff-Quik), T. gallinae; assay type: cell-based, Trichomonas gallinae; details: germacrone 100 µg/mL, metronidazole 10 µg/mL; 0.5 and 48 h; control DMSO 1%
Excerpt: At each time point, quadruplicates were assigned per condition: growth control, germacrone, and the corresponding positive control (metronidazole or amphotericin B). For microscopy, quadruplicate wells corresponding to the same condition/time point were pooled prior to centrifugation to obtain sufficient biomass and a representative pellet for smear preparation. Pooled samples per condition/time point were centrifuged, resuspended in FBS and spread onto microscope slides. Once dried, samples were fixed and stained with Diff-Quik (Medion Diagnostic AG, […], Switzerland) following the manufacturer's instructions. Additionally, three wells per condition (triplicates) were used for the MTT assay, with absorbance measured by spectrophotometry after 48 h. Morphological changes were analyzed using light microscopy. Experiments were performed as independent biological replicates on different plates, and one Diff-Quik stained smear was obtained per condition and time point per biological replicate. For morphometric analysis, a total of 30 trophozoites per condition and time point were measured across the independent biological replicates and were selected by consecutive sampling during a predefined serpentine (zig-zag) scan across the preparation. Up to two eligible trophozoites per field (intact, well-focused and non-overlapping) were measured in sequential fields until n = 30 was reached, avoiding subjective selection of “representative” cells. Overlapping, partially visible, out-of-focus, edge-of-field, or debris-obscured trophozoites were excluded a priori. Trophozoites were photographed using a researcher's mobile phone mounted to the microscope ocular. Calibration was performed at the same magnification using a stage micrometre and applied in ImageJ v. 1.54d. One Diff-Quik stained smear was obtained per condition/time point per biological replicate Cell length, cell width, cell surface, nuclear length, nuclear width, axoneme (only Giardia), and length of axostyle (only T. gallinae) were measured with ImageJ software, and the data were recorded in an Excel database for statistical analysis. The Shapiro-Wilk test was used to assess the normality of the morphological variables. When data followed a normal distribution, Student's t-test was applied; otherwise, non-parametric tests, such as the Mann-Whitney U test, was used. Values of p < 0.05 were considered significant. For the morphological analysis, the mean, standard deviation, median, and interquartile range were calculated using SPSS version 20 (IBM Corp., Armonk, NY, USA).

T. gallinae trophozoites [5] = tested on: T. gallinae trophozoites; set-up: method as in PMID 36157195; details: cited from earlier work

Q: With `Cc1ncc([N+](=O)[O-])n1CCO` [Met, metronidazole, reference compound] as the compound, how does the IC50 [1] read?
A: 4.4 µg/mL (≈ 25.7 µM)

Q: What about the CC50 at 48 h [2] of the same compound?
A: > 100 µg/mL

Q: And the “axoneme length vs control” value [3]?
A: decreased at 0.5 h; also recorded: continued to decrease

Q: And the “cell length vs control” value [3]?
A: significant reductions at 30 min

Q: And the “cell surface area vs control” value [3]?
A: reduction in cell surface area relative to the control within 0.5 h

Q: And the “cell width vs control” value [3]?
A: decrease in cell width at 0.5 h

Q: What about the “nuclear length (left and right) vs control” value [3] of the same compound?
A: No effects

Q: What about the “nuclear width vs control” value [3] of the same compound?
A: reduction at 0.5 h, followed by an increase at 48 h

Q: What about the “axostyle length vs control” value (T. gallinae trophozoites [4]) of the same compound?
A: decreased at 0.5 h; also recorded: undetectable in most metronidazole-treated trophozoites by 48 h

Q: What about the “cell length vs control” value (T. gallinae trophozoites [4]) of the same compound?
A: initial increase at 0.5 h, followed by a reduction at 48 h

Q: What about the “cell surface area vs control” value (T. gallinae trophozoites [4]) of the same compound?
A: significant reduction only at 48 h

Q: What about the “nuclear length vs control” value (T. gallinae trophozoites [4]) of the same compound?
A: decreased with metronidazole

Q: And the “nuclear width vs control” value (T. gallinae trophozoites [4])?
A: diminished at 0.5 h; also recorded: further decreased

Q: And the “T. gallinae IC50” value (T. gallinae trophozoites [5])?
A: 1.0 (0.8–1.1) [23] µg/mL

Source: publication PMC12841663, “Antiprotozoal Potential of Cultivated Geranium macrorrhizum Against Giardia duodenalis, Trichomonas gallinae and Leishmania infantum” (International Journal of Molecular Sciences, 2026)
